Source: patent US9381174B2, “Composition and method for exterminating animal parasite” (Mitsui Chemicals Agro, Inc., priority 2012, dated 2016)

Assays:
[1] = system: Haemaphyxalis Longicornis; assay: Dry Film Insecticidal Test for Haemaphyxalis Longicornis; assay type: in vivo; conditions: 1 ml of 1 ppm acetone solution dried on 9 cm glass petri dish; young ticks; 48 hours of exposure; 25° C.; dead and anguish ticks
Experimental: 1 ml of an acetone solution that was prepared so that the compound was included at a concentration of 1 ppm was added dropwise to a glass petri dish having a diameter of 9 cm. After the addition, the acetone was air-dried for use in the test. About 10 young ticks were added. Then the dish was covered by a plastic film and sealed with a lid. The dish was placed in a constant temperature bath that was set at a temperature of 25° C., at a humidity of 100%, and with a light:dark cycle of 16:8.
After 48 hours of the exposure, the conditions of the ticks were examined and classified into “alive”, “dead (including a moribund condition)”, and “anguish”. The death rates after 48 hours are illustrated in Table 9.
The death rates were calculated as follows: Death Rate (%)=(Number of Dead and Anguish Ticks)/Total Number of Ticks×100

[2] = system: Ctenocephalides felis; assay: Insecticidal Test for Ctenocephalides felis (treated filter paper contact); assay type: in vivo; conditions: 50 μg/cm^2 on filter paper; emerged adult fleas; 72 hours of exposure; dead including moribund; in triplicate
Experimental: 0.2 mL of an acetone solution was added dropwise to a round filter paper having a diameter of 4.0 cm that were grasped with tweezers so that each of the compounds was included in an amount of 50 μg/cm^2. After the addition, the filter paper was dried at room temperature for 24 hours for use in the test.
Three 200 mL vials were used per compound. The filter paper treated with a test agent was placed tightly into a lid of the vials so that fleas might be contacted with the paper.
About 20 emerged adult fleas were added to each of the 200 mL vials using an aspirator. Then immediately, the vial was sealed with the lid into which the filter paper that was treated with the agent was tightly placed. It was examined if the fleas that were already dead were added. In a case in which dead fleas were found, the number of the dead fleas was subtracted from the total number.
The vials were turned upside down so that the fleas were always contacted with the filter paper. After 24, 48, and 72 hours of the exposure, the conditions of the fleas were examined and classified into “alive” and “dead (including a moribund condition)” to determine the death rates (in triplicate). The death rates after 72 hours are illustrated in Table 8.
The death rates were calculated as follows: Death Rate (%)=(Number of Dead Fleas including Moribund Fleas)/Total Number of Fleas×100

| Structure (SMILES) | Death Rate after 48 hours (%) [1] [%] | Death Rate after 72 hours (%) [2] [%] |
| --- | --- | --- |
| CN(CC(F)(F)F)C(=O)C(=O)Nc1cccc(C(=O)Nc2c(Cl)cc(C(F)(C(F)(F)F)C(F)(F)F)cc2C(F)(F)F)c1F [6-3] | 100 |  |
| CN(CC(F)(F)F)C(=O)C(=O)N(C)c1cccc(C(=O)Nc2c(Br)cc(C(F)(C(F)(F)F)C(F)(F)F)cc2C(F)(F)F)c1F [6-4] | 100 |  |
| CN(CC(F)(F)F)C(=O)C(=O)N(C)c1cccc(C(=O)Nc2c(I)cc(C(F)(C(F)(F)F)C(F)(F)F)cc2C(F)(F)F)c1F [6-5] | 100 |  |
| CN(CC(F)(F)F)C(=O)C(=O)Nc1cccc(C(=O)Nc2c(Br)cc(C(F)(C(F)(F)F)C(F)(F)F)cc2SC(F)(F)F)c1F [6-6] | 100 |  |
| CN(CC(F)(F)F)C(=O)C(=O)Nc1cccc(C(=O)Nc2c(Br)cc(C(F)(C(F)(F)F)C(F)(F)F)cc2[S+]([O-])C(F)(F)F)c1F (stereo not drawn) [6-7] | 100 |  |
| CN(CC(F)(F)F)C(=O)C(=O)Nc1cccc(C(=O)Nc2c(Br)cc(C(F)(C(F)(F)F)C(F)(F)F)cc2S(=O)(=O)C(F)(F)F)c1F [6-8] | 100 |  |
| CN(CC(F)(F)F)C(=O)C(=O)Nc1cccc(C(=O)Nc2c(I)cc(C(F)(C(F)(F)F)C(F)(F)F)cc2SC(F)(F)F)c1F [6-9] | 100 |  |
| CN(CC(F)(F)F)C(=O)C(=O)Nc1cccc(C(=O)Nc2c(I)cc(C(F)(C(F)(F)F)C(F)(F)F)cc2[S+]([O-])C(F)(F)F)c1F (stereo not drawn) [6-10] | 100 |  |
| CN(CC(F)(F)F)C(=O)C(=O)Nc1cccc(C(=O)Nc2c(I)cc(C(F)(C(F)(F)F)C(F)(F)F)cc2S(=O)(=O)C(F)(F)F)c1F [6-11] | 100 |  |
| CN(CC(F)(F)F)C(=O)C(=O)Nc1cccc(C(=O)Nc2c(Br)cc(C(F)(C(F)(F)F)C(F)(F)F)cc2OC(F)F)c1F [6-12] | 100 |  |
| CN(CC(F)(F)F)C(=O)C(=O)N(C)c1cccc(C(=O)Nc2c(Br)cc(C(F)(C(F)(F)F)C(F)(F)F)cc2OC(F)F)c1F [6-13] | 100 |  |
| CCN(C)C(=O)C(=O)N(C)c1cccc(C(=O)Nc2c(I)cc(C(F)(C(F)(F)F)C(F)(F)F)cc2OC(F)F)c1F [6-14] | 100 |  |
| CCN(C)C(=O)C(=O)N(C)c1cccc(C(=O)Nc2c(I)cc(C(F)(C(F)(F)F)C(F)(F)C(F)(F)F)cc2OC(F)F)c1F (stereo not drawn) [6-15] | 100 |  |
| CCN(C)C(=O)C(=O)N(C)c1cccc(C(=O)Nc2c(C)cc(C(F)(C(F)(F)F)C(F)(F)C(F)(F)F)cc2OC(F)F)c1F (stereo not drawn) [6-16] | 100 |  |
| CN(CC(F)(F)F)C(=O)C(=O)N(C)c1cccc(C(=O)Nc2c(I)cc(C(F)(C(F)(F)F)C(F)(F)C(F)(F)F)cc2SC(F)(F)F)c1F (stereo not drawn) [6-18] | 100 |  |
| CN(CC(F)(F)F)C(=O)C(=O)N(C)c1cccc(C(=O)Nc2c(I)cc(C(F)(C(F)(F)F)C(F)(F)C(F)(F)F)cc2S(=O)(=O)C(F)(F)F)c1F (stereo not drawn) [6-19] | 100 |  |
| CCN(C)C(=O)C(=O)N(C)c1cccc(C(=O)Nc2c(I)cc(C(F)(C(F)(F)F)C(F)(F)C(F)(F)F)cc2S(=O)(=O)C(F)(F)F)c1F (stereo not drawn) [6-20] | 100 |  |
| CN(CC(F)(F)F)C(=O)C(=O)Nc1cccc(C(=O)Nc2c(Br)cc(C(F)(C(F)(F)F)C(F)(F)F)cc2Br)c1F [Compound No. 4-66] | 100 |  |
| CCN(C)C(=O)C(=O)Nc1cccc(C(=O)Nc2c(Br)cc(C(F)(C(F)(F)F)C(F)(F)F)cc2OC(F)F)c1 [Compound No. 5-15] | 100 | 80.0 |
| CN(CCF)C(=O)C(=O)Nc1cccc(C(=O)Nc2c(Br)cc(C(F)(C(F)(F)F)C(F)(F)F)cc2C(F)(F)F)c1F [Compound No. 6-1, 2-fluoro-3-[N-(2-fluoroethyl)-N-methylaminoxalylamino]-N-[2-bromo-4-heptafluoroisopropyl-6-(trifluoromethyl)phenyl]benzamide] | 100 | 100 |
| CN(CCF)C(=O)C(=O)Nc1cccc(C(=O)Nc2c(I)cc(C(F)(C(F)(F)F)C(F)(F)F)cc2C(F)(F)F)c1F [Compound No. 6-2, 2-fluoro-3-[N-(2-fluoroethyl)-N-methylaminoxalylamino]-N-[2-iodo-4-heptafluoroisopropyl-6-(trifluoromethyl)phenyl]benzamide] | 100 | 100 |
